From patent publication US5070210A, “Novel ketenimines as intermediates for insecticides” (ICI Americas Inc., priority 1990, dated 1991)

Legend:
Format in all cases: in vivo
[1] = tested on: Housefly [Musca domestica]; test: Housefly insecticidal test; conditions: μg per 25 female flies; mortality after 48 hours
Outline: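 LC50, as μg compound per 25 female flies, comes from dosage-mortality curves with doses from 100 μg downward. Residues were made by evaporating acetone plus 0.01% peanut oil in dishes, onto which 1-2-day-old females were caged; deaths were counted after 48 hours.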

[2] = tested on: Tobacco Budworm [Heliothis virescens (Fabricius)] larvae; test: Tobacco budworm contact test; conditions: second-instar larvae, percent in solution, 5 days
Protocol: (§1) The compounds in Tables 1 and 2 above were tested for insecticidal activity using the following testing procedures. LC50 values, based on the results of these tests and calculated according to dosage-mortality curves, are expressed in Table 3.
Tobacco Budworm [Heliothis virescens (Fabricius)]:
(a) Contact: Test compounds were diluted in a 50-50 acetone-water solution. Cotton (Gossypium sp.) cotyledons were immersed in the test solutions for 2-3 seconds and placed on a wire screen to dry. The dried leaves were placed in petri dishes containing a moistened piece of filter paper and infested with 5 second-instar tobacco budworm larvae. The dishes were placed in a high humidity chamber for 5 days, and percent mortality of the larvae recorded. Test concentrations ranged from 0.1% downward. The LC-50 values are expressed below in Table 3 under the heading "TBW-C" in terms of percent of the test compound in the solution.

[3] = tested on: Tobacco Budworm [Heliothis virescens (Fabricius)] eggs; test: Tobacco budworm egg test; conditions: 2-day old eggs, percent in solution
Outline: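 LC50 values (percent test compound in the dip solution) were calculated from dosage-mortality curves. Egg patches, 2 days old, were dipped in acetone solutions at concentrations from 0.1% downward and held at 78° F on rearing medium until control larvae hatched and fed.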

[4] = tested on: Beet Armyworm (Spodoptera exigua); test: Beet armyworm insecticidal test; conditions: second-instar larvae, percent in solution; five days
Protocol: as §1
Beet Armyworm (Spodoptera exigua):
Test compounds were diluted in a 50-50 acetone-water solution. Young leaves of sugar beets (Beta vulgaris) were immersed in the test solutions for 2-3 seconds and placed on a wire screen to dry. The dried leaves were placed in petri dishes containing a moistened filter paper and infested with five second-instar beet armyworm larvae. The dishes were placed in a high humidity chamber. Mortality of the larvae was recorded five days later. Test concentrations ranged from 0.1% downward. The LC-50 values are expressed below in Table 3 under the heading "BAW" in terms of percent of the test compound in solution.

[5] = tested on: Cabbage Looper [Trichoplusia ni (Hubner)]; test: Cabbage looper insecticidal test; conditions: second-instar larvae, percent in solution; 3-5 days
Outline: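 Leaf dip, squash cotyledons, 50-50 acetone-water, top dose 0.1% and lower. 5 second-instar larvae/dish, moist filter paper, high-humidity chamber. Mortality at 3-5 d; LC50 (% in solution) from dosage-mortality curves.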

[6] = tested on: Aster Leafhopper [Macrosteles fascifrens (Stal)]; test: Aster leafhopper insecticidal test; conditions: adults/nymphs, percent in solution; 48 hours
Outline: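 LC50 values, given as percent of test compound in the dip solution, were derived from dosage-mortality curves over concentrations from 0.05% downward. Mortality was counted 48 hours after ten leafhopper adults/nymphs were enclosed on treated seedlings. The seedlings were oats, about 10 cm tall, briefly dipped in 50-50 acetone-water.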

[7] = tested on: Maize weevil [Sitophilus Zeamais (Motschulsky)]; test: Maize weevil insecticidal test; conditions: adult weevils, percent in solution; 48 hours
Outline: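 LC50, in percent of compound in solution, was derived from dosage-mortality curves after 48 h at about 25 °C. Ten adult weevils per container fed on four corn seeds briefly immersed in acetone:water (50:50) solutions of up to 0.01% and dried.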

Row | SMILES | LC50, HF [1] | LC50, TBW, C (TBW-C) [2] | LC50, TBW, E (TBW-E) [3] | LC50, BAW [4] | LC50, CL [5] | LC50, LH [6] | LC50, MW [7]
1 | Clc1cccc(N=C(OCc2cccc(Oc3ccccc3)c2)C(Cl)Cl)c1 [Compound 1] | 4.8 µg | 0.06% | 0.05% | 0.009% | 0.005% | > 0.05% | > 0.01%
2 | CC(C)C(=Nc1ccc(Cl)cc1)OCc1cccc(Oc2ccccc2)c1 [Compound 2] | 4.5 µg | 0.0009% | 0.04% | 0.01% | 0.006% | 0.0003% | –
3 | CC(Cl)(Cl)C(=Nc1ccc(Cl)cc1)OCc1cccc(Oc2ccccc2)c1 [Compound 3] | 50 µg | 0.009% | > 0.1% | 0.015% | 0.012% | > 0.05% | > 0.01%
4 | Clc1ccc(N=C(OCc2cccc(Oc3ccccc3)c2)C(Cl)Cl)c(Cl)c1 [Compound 4] | 100 µg | 0.05% | > 0.1% | 0.04% | 0.007% | > 0.05% | –
5 | CC(C)C(=Nc1ccc(Cl)c(Cl)c1)OCc1cccc(Oc2ccccc2)c1 [Compound 9] | 14 µg | 0.0008% | 0.02% | 0.0005% | 0.001% | 0.0003% | > 0.01%
6 | Clc1ccc(N=C(OCc2cccc(Oc3ccccc3)c2)C(Cl)Cl)cc1 [Compound 29] | 5 µg | 0.001% | 0.01% | 0.003% | 0.002% | 0.003% | > 0.01%
7 | ClCC(=Nc1ccc(Cl)cc1)OCc1cccc(Oc2ccccc2)c1 [Compound 31] | > 100 µg | 0.01% | > 0.1% | 0.08% | 0.05% | > 0.05% | > 0.01%
8 | Clc1ccc(N=C(OCc2cccc(Oc3ccccc3)c2)C2CC2)cc1 [Compound 32] | 37 µg | 0.006% | 0.1% | 0.03% | 0.003% | > 0.05% | > 0.01%
9 | CC(Cl)C(=Nc1ccc(Cl)cc1)OCc1cccc(Oc2ccccc2)c1 (centres unmarked) [Compound 33] | 17 µg | 0.0025% | > 0.1% | 0.02% | 0.01% | > 0.05% | > 0.01%
10 | CC(=Nc1ccccc1)OCc1cccc(Oc2ccccc2)c1 [Compound 42] | 45 µg | > 0.1% | > 0.1% | > 0.1% | > 0.1% | > 0.05% | > 0.01%
11 | Fc1ccc(N=C(OCc2cccc(Oc3ccccc3)c2)C2CC2)cc1 [Compound 45] | 30 µg | 0.01% | 0.08% | 0.1% | 0.03% | > 0.05% | –
12 | CC(C)C(=Nc1cccc(F)c1)OCc1cccc(Oc2ccccc2)c1 [Compound 47] | 10 µg | 0.002% | 0.06% | 0.002% | 0.002% | 0.0003% | –
13 | CC(C)C(=Nc1ccc(F)cc1F)OCc1cccc(Oc2ccccc2)c1 [Compound 52] | 8 µg | 0.004% | > 0.05% | 0.01% | 0.0025% | 0.001% | –
